Assay [1] addresses T1, rat CB2 (Rattus norvegicus, UniProt Q9QZN9).
T1 sequence (Q9QZN9 1-360): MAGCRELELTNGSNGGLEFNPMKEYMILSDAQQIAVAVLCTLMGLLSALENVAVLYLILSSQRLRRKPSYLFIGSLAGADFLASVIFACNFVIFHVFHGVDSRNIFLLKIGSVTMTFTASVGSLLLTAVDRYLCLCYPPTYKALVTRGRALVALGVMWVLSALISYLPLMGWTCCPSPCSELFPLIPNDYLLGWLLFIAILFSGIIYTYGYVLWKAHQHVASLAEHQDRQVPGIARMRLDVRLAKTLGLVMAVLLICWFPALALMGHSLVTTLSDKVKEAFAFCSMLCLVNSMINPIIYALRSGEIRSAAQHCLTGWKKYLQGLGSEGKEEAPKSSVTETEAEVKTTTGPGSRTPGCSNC
Kind of assay: rat CB2 cyclase functional assay (HitHunter cAMP, HEK cells). As to conditions: forskolin 18 μM. The format is cell-based. Set-up: expressed in transfected cells; host or cells: HEK.

The next assay concerns the target T2, human CB2 receptors (Homo sapiens, UniProt P34972).
T2 construct: expressed in transfected cells; host or cells: HEK293
The assay can be described thus: human CB2 radioligand binding assay ([3H]CP-55,940 competition).

The target in assay [2] is T1, rat CB2. The assay can be described thus: rat CB2 radioligand binding assay ([3H]CP-55,940 competition). Details: expressed in transfected cells; host or cells: HEK293.

T2 sequence (P34972 whole entry): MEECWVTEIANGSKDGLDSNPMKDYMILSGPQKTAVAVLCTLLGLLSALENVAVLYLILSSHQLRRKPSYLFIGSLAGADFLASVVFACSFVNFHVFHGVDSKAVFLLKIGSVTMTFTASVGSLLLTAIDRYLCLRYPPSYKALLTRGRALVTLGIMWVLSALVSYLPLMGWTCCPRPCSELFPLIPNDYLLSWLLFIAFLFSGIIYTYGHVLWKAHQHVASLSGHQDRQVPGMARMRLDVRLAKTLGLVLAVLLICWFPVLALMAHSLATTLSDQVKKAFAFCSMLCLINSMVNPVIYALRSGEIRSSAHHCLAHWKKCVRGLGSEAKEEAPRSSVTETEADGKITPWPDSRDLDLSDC

In the case of `COc1ccc(C(F)(F)F)cc1C(=O)/N=c1\sn(C(C)(C)C)cc1CCCC(C)=O` [Example 76, N-[(5Z)-2-tert-butyl-4-(4-oxopentyl)isothiazol-5(2H)-ylidene]-2-methoxy-5-(trifluoromethyl)benzamide], at rat CB2 [1], the response was half-maximal at 0.13 nM (EC50). The Ki is 24 nM at human CB2 receptors and 2.2 nM on rat CB2 [2].

As to `COc1ccc(Cl)cc1C(=O)/N=c1\sn(C(C)(C)C)cc1CCCC(C)(C)O` [Example 80, N-[(5Z)-2-tert-butyl-4-(4-hydroxy-4-methylpentyl)isothiazol-5(2H)-ylidene]-5-chloro-2-methoxybenzamide], the EC50 on rat CB2 [1] was 0.046 nM. Further, the results for the Ki at human CB2 receptors and at rat CB2 [2] were 74 nM and 8.5 nM, respectively.

On rat CB2 [1], `COc1ccc(C(F)(F)F)cc1C(=O)/N=c1\sn(C(C)(C)C)cc1CCCC(C)(C)O` [Example 81, N-[(5Z)-2-tert-butyl-4-(4-hydroxy-4-methylpentyl)isothiazol-5(2H)-ylidene]-2-methoxy-5-(trifluoromethyl)benzamide] showed an EC50 of 0.061 nM. The Ki on human CB2 receptors stood at 45 nM; on rat CB2 [2] it was 2.6 nM.

In the case of `COc1ccc(Cl)cc1C(=O)/N=c1\sn(C(C)(C)C)cc1CCCC(C)(C)F` [Example 83, N-[(5Z)-2-tert-butyl-4-(4-fluoro-4-methylpentyl)isothiazol-5(2H)-ylidene]-5-chloro-2-methoxybenzamide], on rat CB2 [1], the EC50 was 0.073 nM. Besides, the Ki at human CB2 receptors worked out at 12 nM; on rat CB2 [2], 0.79 nM.

`COc1ccc(Cl)cc1C(=O)/N=c1\sn(C(C)(C)C)cc1CCC(C)=O` [Example 84, N-[(5Z)-2-tert-butyl-4-(3-oxobutyl)isothiazol-5(2H)-ylidene]-5-chloro-2-methoxybenzamide] displayed an EC50 at rat CB2 [1] of 0.88 nM. Besides, the Ki on human CB2 receptors worked out at 42 nM; on rat CB2 [2] it was 2.7 nM.

As to `COc1ccc(Cl)cc1C(=O)/N=c1\sn(C(C)(C)C)cc1COCC(F)(F)F` [Example 85, N-[(5Z)-2-tert-butyl-4-[(2,2,2-trifluoroethoxy)methyl]isothiazol-5(2H)-ylidene]-5-chloro-2-methoxybenzamide], the EC50 on rat CB2 [1] turned out to be 0.42 nM. Moreover, the Ki at human CB2 receptors is 17 nM; on rat CB2 [2], 3.5 nM.

In the case of `COc1ccc(Cl)cc1C(=O)/N=c1\sn(C(C)(C)C)cc1CCCC(C)(F)F` [Example 86, N-[(5Z)-2-tert-butyl-4-(4,4-difluoropentyl)isothiazol-5(2H)-ylidene]-5-chloro-2-methoxybenzamide], the EC50 on rat CB2 [1] was determined as 0.12 nM. The Ki at human CB2 receptors came to 4.4 nM; at rat CB2 [2] it was 0.64 nM.

`COc1ccc(Cl)cc1C(=O)/N=c1\sn(C(C)(C)C)cc1CCC(C)(C)F` [Example 87, N-[(5Z)-2-tert-butyl-4-(3-fluoro-3-methylbutyl)isothiazol-5(2H)-ylidene]-5-chloro-2-methoxybenzamide] had an EC50 at rat CB2 [1] of 0.15 nM. Also, the Ki on human CB2 receptors turned out to be 12 nM; at rat CB2 [2] it was 0.74 nM.

At rat CB2 [1], `COc1ccc(Cl)cc1C(=O)/N=c1\sn(C(C)(C)C)cc1COCC(F)F` [Example 91, N-[(5Z)-2-tert-butyl-4-[(2,2-difluoroethoxy)methyl]isothiazol-5(2H)-ylidene]-5-chloro-2-methoxybenzamide] had an EC50 of 0.1 nM. Besides, the figures for the Ki at human CB2 receptors and on rat CB2 [2] were 45 nM and 12 nM, respectively.

On to `CCCCc1cn(C(C)(C)C)s/c1=N\C(=O)C1(c2ccccc2)CCCCC1` [Example 94, N-[(5Z)-4-butyl-2-tert-butylisothiazol-5(2H)-ylidene]-1-phenylcyclohexanecarboxamide], for which the EC50 at rat CB2 [1] was found to be 0.25 nM. The Ki on human CB2 receptors was determined as 4.8 nM; on rat CB2 [2], 1.1 nM.

On to `CCCCc1cn(C(C)(C)C)s/c1=N\C(=O)C1(C)CCC(C(=O)O)C1(C)C` (stereo not drawn) [Example 96, 3-({[(5Z)-4-butyl-2-tert-butylisothiazol-5(2H)-ylidene]amino}carbonyl)-2,2,3-trimethylcyclopentanecarboxylic acid], for which the EC50 at rat CB2 [1] was 1.4 nM. Moreover, the inhibition constant (Ki) on human CB2 receptors came out at 20 nM; at rat CB2 [2], 27 nM.

On rat CB2 [1], `CCCCc1cn(C(C)(C)C)s/c1=N\C(=O)C1(C)CCC(C(=O)N(C)C)C1(C)C` (stereo not drawn) [Example 99, N^1-[(5Z)-4-butyl-2-tert-butylisothiazol-5(2H)-ylidene]-N^3,N^3,1,2,2-pentamethylcyclopentane-1,3-dicarboxamide] came in with an EC50 of 4.8 nM. Besides, the Ki on human CB2 receptors came out at 56 nM; at rat CB2 [2], 42 nM.

`CCCCc1cn(C(C)(C)C)s/c1=N\C(=O)C1(C)CCC(C(=O)NC)C1(C)C` (stereo not drawn) [Example 100, N^1-[(5Z)-4-butyl-2-tert-butylisothiazol-5(2H)-ylidene]-N^3,1,2,2-tetramethylcyclopentane-1,3-dicarboxamide]: it took 0.99 nM to reach a half-maximal effect at rat CB2 [1] (EC50). Further, the Ki on human CB2 receptors was 10 nM; on rat CB2 [2] it was 9.9 nM.

At rat CB2 [1], `CCCCc1cn(C(C)(C)C)s/c1=N\C(=O)C1CCC(C)(C(=O)O)C1(C)C` (stereo not drawn) [Example 105, 3-({[(5Z)-4-butyl-2-tert-butylisothiazol-5(2H)-ylidene]amino}carbonyl)-1,2,2-trimethylcyclopentanecarboxylic acid] displayed an EC50 of 0.11 nM. Besides, the Ki was 19 nM on human CB2 receptors and 17 nM at rat CB2 [2].

For the molecule `CCCCc1cn(C(C)(C)C)s/c1=N\C(=NC#N)c1cc(Cl)ccc1OC` [Example 110, N-[(5Z)-4-butyl-2-tert-butylisothiazol-5(2H)-ylidene]-5-chloro-N′-cyano-2-methoxybenzenecarboximidamide], on rat CB2 [1], the EC50 was found to be 0.12 nM. Further, the Ki was 3 nM on human CB2 receptors and 1.6 nM on rat CB2 [2].

As to `CCCCc1cn(C(C)(C)C)s/c1=N\S(=O)(=O)c1cccc2ccccc12` [Example 116, N-[(5Z)-4-butyl-2-tert-butylisothiazol-5(2H)-ylidene]naphthalene-1-sulfonamide], on rat CB2 [1], the EC50 is 2.4 nM. Besides, the values for the Ki on human CB2 receptors and on rat CB2 [2] were 50 nM and 45 nM, respectively.

Turning to `CCCCc1cn(C(C)(C)C)s/c1=N\S(=O)(=O)C1CCCCC1` [Example 118, N-[(5Z)-4-butyl-2-tert-butylisothiazol-5(2H)-ylidene]cyclohexanesulfonamide], the EC50 at rat CB2 [1] amounted to 5.1 nM. Further, the Ki was found to be 43 nM on human CB2 receptors and 119 nM on rat CB2 [2].

Molecule `CCCCc1cn(C(C)(C)C)s/c1=N\C(=O)C1C(C)(C)C1(C)C` [Example 121, N-[(5Z)-4-butyl-2-tert-butylisothiazol-5(2H)-ylidene]-2,2,3,3-tetramethylcyclopropanecarboxamide] returned an EC50 at rat CB2 [1] of 0.33 nM. For the same molecule, the Ki worked out at 0.8 nM on human CB2 receptors and 0.52 nM on rat CB2 [2].

For `CCCCc1cn(C(C)(C)C)s/c1=N\S(=O)(=O)c1cccc(Cl)c1Cl` [Example 122, N-[(5Z)-4-butyl-2-tert-butylisothiazol-5(2H)-ylidene]-2,3-dichlorobenzenesulfonamide], a half-maximal effect on rat CB2 [1] (EC50) was put at 1.9 nM. The Ki is 18 nM on human CB2 receptors and 11 nM at rat CB2 [2].

Take `CCCCc1cn(C(C)(C)C)s/c1=N\C(=O)C12CC3CC(CC(C3)C1)C2` [Example 123, N-[(5Z)-4-butyl-2-tert-butylisothiazol-5(2H)-ylidene]adamantane-1-carboxamide]: a half-maximal response at rat CB2 [1] (EC50) required 0.13 nM. Further, the results for the Ki at human CB2 receptors and on rat CB2 [2] were 0.31 nM and 0.17 nM, respectively.

The term EC50 denotes the concentration that produces a half-maximal response. High values mean weaker potency, low ones greater potency. The term Ki denotes the dissociation constant of the complex between target and ligand, obtained from inhibition or displacement. A lower Ki goes with a stronger hold on the target.
